In ChEMBL document CHEMBL5678818, “Discovery of potent SOS1 inhibitors that block RAS activation via disruption of the RAS-SOS1 interaction” (Proc Natl Acad Sci U S A, 2019):

How the values were obtained:
[1] = target: STE20/SPS1-related proline-alanine-rich protein kinase (Homo sapiens) (UniProt Q9UEW8); test: Inhibition of STK39 (unknown origin) assessed as residual activity at 100 nM by KINOMEscan analysis relative to control
[2] = target: Proto-oncogene tyrosine-protein kinase Src (Homo sapiens) (UniProt P12931); test: Inhibition of SRC (unknown origin) assessed as residual activity at 100 nM by KINOMEscan analysis relative to control
Proto-oncogene tyrosine-protein kinase Src (Homo sapiens), sequence (P12931 2-536 limits assumed): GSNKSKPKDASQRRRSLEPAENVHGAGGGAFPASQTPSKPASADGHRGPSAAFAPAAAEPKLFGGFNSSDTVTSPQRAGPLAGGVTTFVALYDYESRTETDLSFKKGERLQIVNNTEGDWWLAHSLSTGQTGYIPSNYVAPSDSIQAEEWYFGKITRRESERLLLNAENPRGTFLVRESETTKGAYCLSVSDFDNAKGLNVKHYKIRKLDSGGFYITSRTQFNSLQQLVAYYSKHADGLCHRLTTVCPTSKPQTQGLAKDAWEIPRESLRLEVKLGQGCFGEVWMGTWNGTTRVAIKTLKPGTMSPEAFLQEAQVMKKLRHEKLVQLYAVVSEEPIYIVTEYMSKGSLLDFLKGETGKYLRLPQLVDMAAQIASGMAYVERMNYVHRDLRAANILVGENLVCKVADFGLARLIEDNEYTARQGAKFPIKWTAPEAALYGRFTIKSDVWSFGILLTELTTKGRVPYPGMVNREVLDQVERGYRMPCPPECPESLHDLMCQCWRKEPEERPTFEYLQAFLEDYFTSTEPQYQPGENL

[3] = target: Protein kinase C theta type (Homo sapiens) (UniProt Q04759); test: Inhibition of PRKCQ (unknown origin) assessed as residual activity at 100 nM by KINOMEscan analysis relative to control
Protein kinase C theta type (Homo sapiens), sequence (Q04759 whole entry, looked up): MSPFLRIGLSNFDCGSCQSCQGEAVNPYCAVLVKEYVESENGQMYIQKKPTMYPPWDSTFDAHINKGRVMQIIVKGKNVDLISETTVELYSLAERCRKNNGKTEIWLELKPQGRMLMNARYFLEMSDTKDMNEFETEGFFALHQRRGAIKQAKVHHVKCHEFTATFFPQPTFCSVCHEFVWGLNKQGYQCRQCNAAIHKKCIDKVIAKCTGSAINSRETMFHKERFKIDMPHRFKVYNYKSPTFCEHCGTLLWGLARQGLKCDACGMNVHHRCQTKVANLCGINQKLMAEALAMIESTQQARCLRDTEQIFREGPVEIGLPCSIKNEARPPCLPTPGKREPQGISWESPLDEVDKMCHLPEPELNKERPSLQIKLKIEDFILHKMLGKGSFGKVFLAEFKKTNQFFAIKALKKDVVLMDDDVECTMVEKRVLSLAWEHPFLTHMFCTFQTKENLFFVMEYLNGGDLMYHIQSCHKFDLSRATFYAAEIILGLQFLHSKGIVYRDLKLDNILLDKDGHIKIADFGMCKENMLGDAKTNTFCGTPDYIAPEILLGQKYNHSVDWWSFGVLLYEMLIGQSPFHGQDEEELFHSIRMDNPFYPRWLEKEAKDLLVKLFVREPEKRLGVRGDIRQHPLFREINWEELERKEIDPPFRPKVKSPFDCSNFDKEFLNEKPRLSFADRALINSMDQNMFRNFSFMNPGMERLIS

[4] = target: T1, Cyclin-G-associated kinase (Homo sapiens) (UniProt O14976); test: Inhibition of GAK (unknown origin) assessed as residual activity at 100 nM by KINOMEscan analysis relative to control
T1 sequence (whole entry): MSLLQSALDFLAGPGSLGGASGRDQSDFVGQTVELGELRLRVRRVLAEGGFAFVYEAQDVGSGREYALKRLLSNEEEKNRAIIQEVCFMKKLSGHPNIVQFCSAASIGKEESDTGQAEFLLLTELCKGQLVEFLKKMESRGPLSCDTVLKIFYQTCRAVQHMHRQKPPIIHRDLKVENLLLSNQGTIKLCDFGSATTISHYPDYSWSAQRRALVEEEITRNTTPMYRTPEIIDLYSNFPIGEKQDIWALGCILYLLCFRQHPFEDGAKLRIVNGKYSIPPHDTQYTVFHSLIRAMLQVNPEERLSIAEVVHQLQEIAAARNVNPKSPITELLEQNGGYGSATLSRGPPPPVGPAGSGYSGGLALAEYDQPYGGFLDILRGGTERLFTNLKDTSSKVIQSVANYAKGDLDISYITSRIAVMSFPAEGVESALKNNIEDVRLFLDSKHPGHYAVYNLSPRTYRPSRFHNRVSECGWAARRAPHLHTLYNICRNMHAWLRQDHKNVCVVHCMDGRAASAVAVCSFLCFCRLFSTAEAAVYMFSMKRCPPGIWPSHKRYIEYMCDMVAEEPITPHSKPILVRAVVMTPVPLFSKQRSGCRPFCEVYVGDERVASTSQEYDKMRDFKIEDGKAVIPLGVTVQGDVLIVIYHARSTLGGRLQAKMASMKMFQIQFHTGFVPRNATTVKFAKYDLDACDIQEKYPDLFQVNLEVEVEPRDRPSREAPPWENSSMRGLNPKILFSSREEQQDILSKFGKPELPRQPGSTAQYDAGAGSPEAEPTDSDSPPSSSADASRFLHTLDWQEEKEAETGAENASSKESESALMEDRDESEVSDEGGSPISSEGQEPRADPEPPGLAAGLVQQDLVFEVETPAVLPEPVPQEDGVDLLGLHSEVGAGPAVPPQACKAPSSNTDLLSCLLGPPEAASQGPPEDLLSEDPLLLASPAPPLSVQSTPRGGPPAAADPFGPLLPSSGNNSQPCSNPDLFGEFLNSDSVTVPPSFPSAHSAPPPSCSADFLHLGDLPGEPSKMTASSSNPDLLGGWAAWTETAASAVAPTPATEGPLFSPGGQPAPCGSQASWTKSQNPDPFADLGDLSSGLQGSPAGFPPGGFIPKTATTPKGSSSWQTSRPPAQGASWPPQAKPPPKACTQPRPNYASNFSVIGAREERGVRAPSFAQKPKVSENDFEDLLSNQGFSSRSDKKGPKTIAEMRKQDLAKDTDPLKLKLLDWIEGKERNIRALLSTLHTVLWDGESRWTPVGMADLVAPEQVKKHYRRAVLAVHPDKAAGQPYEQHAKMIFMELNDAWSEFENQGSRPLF

[5] = target: SRSF protein kinase 2 (Homo sapiens) (UniProt P78362); test: Inhibition of SRPK2 (unknown origin) assessed as residual activity at 100 nM by KINOMEscan analysis relative to control
SRSF protein kinase 2 (Homo sapiens), sequence (P78362 whole entry, looked up): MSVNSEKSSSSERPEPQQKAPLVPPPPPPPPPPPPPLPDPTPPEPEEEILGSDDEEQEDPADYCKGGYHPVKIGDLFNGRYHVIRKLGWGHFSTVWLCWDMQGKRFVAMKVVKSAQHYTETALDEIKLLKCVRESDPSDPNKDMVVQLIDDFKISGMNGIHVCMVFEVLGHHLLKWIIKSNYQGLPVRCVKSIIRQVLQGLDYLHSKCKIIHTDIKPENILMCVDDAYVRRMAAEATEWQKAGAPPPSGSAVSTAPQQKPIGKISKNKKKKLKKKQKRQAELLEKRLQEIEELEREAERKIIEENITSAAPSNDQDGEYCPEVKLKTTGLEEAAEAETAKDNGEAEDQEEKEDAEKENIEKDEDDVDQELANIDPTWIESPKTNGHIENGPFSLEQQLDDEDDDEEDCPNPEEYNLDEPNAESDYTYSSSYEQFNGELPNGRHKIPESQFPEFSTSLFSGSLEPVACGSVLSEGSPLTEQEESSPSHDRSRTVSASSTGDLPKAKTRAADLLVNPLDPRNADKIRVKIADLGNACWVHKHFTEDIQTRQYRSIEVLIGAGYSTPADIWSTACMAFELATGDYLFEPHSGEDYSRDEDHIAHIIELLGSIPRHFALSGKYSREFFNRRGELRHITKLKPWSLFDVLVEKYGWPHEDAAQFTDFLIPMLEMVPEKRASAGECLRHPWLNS

[6] = target: T2, Dual specificity mitogen-activated protein kinase kinase 3 (Homo sapiens) (UniProt P46734); test: Inhibition of MEK3 (unknown origin) assessed as residual activity at 100 nM by KINOMEscan analysis relative to control
T2 sequence (whole entry): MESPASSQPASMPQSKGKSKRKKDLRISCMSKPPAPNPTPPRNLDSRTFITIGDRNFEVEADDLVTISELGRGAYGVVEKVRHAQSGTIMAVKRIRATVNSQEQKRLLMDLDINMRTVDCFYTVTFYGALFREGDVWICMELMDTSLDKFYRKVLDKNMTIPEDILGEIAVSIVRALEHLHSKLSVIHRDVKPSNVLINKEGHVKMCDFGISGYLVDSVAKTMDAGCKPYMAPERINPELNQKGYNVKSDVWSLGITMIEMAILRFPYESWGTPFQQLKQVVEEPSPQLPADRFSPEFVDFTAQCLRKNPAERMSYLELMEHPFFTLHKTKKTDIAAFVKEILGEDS

[7] = target: T3, Serine/threonine-protein kinase PLK4 (Homo sapiens) (UniProt O00444); test: Inhibition of PLK4 (unknown origin) assessed as residual activity at 100 nM by KINOMEscan analysis relative to control
T3 sequence (whole entry): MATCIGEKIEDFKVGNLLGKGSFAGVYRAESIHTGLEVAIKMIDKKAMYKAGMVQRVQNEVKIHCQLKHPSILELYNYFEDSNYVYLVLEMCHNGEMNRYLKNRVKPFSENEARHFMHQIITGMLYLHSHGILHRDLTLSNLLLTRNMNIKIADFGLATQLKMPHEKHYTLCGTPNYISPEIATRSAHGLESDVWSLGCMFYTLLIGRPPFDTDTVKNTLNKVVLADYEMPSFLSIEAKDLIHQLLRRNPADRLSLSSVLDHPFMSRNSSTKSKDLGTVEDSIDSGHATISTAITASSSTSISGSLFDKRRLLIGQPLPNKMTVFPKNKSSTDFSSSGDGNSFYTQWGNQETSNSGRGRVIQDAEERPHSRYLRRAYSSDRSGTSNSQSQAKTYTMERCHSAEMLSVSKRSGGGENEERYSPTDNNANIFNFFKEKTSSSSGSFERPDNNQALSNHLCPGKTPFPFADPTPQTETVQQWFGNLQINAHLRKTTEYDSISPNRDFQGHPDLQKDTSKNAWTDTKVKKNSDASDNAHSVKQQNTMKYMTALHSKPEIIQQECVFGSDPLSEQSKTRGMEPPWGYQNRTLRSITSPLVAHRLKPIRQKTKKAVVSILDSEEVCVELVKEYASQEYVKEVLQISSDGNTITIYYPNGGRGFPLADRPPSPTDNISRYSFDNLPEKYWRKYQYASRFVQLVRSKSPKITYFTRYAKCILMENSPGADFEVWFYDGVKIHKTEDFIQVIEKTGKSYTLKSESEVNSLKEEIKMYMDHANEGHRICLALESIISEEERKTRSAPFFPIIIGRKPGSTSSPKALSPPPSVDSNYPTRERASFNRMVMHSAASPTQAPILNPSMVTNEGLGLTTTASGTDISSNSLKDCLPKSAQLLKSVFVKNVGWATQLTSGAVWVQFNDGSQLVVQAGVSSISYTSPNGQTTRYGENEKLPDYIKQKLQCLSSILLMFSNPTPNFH

COc1cc2ncnc(N[C@H](C)c3cccc4ccccc34)c2cc1OC
Activity [1]: 93%
Activity [2]: 90%
Activity [3]: 100%
Activity [4]: 100%
Activity [5]: 92%
Activity [6]: 90%
Activity [7]: 87%
